Assay results published in patent publication US10670605B2, “Cysteine reactive probes and uses thereof” (The Scripps Research Institute, priority 2015, dated 2020).
One block for each molecule: values may come before it.

Key:
Test in all cases: Competitive isoTOP-ABPP, cell lysates
Type in all cases: binding
[1] = biological target: IRAK1 C608 (P51617) (Homo sapiens, UniProt P51617); conditions: for R value (DMSO/fragment) / isoTOP-ABPP ratio, P51617_C608: 500 μM, invitro, ramos; for isoTOP-ABPP ratio (reactivity profile), P51617_C608: 500 μm in-vitro ramos; for isoTOP-ABPP reactivity ratio, P51617_C608 / isoTOP-ABPP reactivity profile ratio, P51617_C608: 500 μm
[2] = biological target: T1, NCF1 C378 (P14598) (Homo sapiens, UniProt P14598)
T1 sequence (P14598 1-390): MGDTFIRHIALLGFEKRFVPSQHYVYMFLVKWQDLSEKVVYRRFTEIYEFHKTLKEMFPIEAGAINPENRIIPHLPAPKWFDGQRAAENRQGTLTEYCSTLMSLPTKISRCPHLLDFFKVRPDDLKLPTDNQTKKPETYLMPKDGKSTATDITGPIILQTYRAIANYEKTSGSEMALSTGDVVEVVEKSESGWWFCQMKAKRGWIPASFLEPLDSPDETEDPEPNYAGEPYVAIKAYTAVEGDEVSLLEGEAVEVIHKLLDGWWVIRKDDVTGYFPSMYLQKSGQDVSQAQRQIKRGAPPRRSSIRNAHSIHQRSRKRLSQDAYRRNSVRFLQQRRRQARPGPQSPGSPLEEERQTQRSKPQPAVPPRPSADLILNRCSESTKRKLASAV

[3] = biological target: T2, UBE2O C375 (Q9C0C9) (Homo sapiens, UniProt Q9C0C9)
T2 sequence (Q9C0C9 1-1292): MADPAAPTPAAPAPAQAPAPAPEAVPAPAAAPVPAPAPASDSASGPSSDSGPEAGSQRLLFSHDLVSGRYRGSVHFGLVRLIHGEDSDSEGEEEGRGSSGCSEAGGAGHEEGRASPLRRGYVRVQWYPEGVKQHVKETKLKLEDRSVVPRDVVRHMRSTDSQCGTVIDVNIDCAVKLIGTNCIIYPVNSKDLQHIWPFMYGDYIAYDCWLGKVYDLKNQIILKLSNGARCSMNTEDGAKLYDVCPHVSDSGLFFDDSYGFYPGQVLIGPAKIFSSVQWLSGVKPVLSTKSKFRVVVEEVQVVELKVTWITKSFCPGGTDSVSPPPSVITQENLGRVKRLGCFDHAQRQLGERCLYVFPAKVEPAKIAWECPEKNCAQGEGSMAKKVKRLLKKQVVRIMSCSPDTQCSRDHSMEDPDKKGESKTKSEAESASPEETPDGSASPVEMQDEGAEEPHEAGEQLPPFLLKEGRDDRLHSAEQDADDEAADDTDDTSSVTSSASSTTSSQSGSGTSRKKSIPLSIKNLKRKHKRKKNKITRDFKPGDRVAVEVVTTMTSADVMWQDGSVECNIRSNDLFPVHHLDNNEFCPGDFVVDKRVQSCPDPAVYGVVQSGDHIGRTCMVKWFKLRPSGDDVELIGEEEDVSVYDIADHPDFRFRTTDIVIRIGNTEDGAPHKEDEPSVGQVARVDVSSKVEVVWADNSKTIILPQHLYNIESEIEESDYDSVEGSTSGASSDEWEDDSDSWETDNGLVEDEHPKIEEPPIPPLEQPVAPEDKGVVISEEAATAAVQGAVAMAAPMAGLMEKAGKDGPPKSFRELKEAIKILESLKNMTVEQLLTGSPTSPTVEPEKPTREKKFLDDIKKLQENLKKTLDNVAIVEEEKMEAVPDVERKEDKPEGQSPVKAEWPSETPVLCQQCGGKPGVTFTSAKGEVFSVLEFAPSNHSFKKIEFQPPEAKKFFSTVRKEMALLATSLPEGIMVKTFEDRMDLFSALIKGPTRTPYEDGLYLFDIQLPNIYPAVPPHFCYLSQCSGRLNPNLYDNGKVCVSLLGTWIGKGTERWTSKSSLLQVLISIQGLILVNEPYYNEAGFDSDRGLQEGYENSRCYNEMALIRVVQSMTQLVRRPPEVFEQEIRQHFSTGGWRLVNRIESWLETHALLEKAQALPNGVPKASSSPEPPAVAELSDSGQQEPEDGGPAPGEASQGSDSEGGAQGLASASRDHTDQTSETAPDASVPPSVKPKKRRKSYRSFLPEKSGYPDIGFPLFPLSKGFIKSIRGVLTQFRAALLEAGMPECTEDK

Chain of IRAK1 C608 (P51617) (P51617 whole entry, the tested form may be a part): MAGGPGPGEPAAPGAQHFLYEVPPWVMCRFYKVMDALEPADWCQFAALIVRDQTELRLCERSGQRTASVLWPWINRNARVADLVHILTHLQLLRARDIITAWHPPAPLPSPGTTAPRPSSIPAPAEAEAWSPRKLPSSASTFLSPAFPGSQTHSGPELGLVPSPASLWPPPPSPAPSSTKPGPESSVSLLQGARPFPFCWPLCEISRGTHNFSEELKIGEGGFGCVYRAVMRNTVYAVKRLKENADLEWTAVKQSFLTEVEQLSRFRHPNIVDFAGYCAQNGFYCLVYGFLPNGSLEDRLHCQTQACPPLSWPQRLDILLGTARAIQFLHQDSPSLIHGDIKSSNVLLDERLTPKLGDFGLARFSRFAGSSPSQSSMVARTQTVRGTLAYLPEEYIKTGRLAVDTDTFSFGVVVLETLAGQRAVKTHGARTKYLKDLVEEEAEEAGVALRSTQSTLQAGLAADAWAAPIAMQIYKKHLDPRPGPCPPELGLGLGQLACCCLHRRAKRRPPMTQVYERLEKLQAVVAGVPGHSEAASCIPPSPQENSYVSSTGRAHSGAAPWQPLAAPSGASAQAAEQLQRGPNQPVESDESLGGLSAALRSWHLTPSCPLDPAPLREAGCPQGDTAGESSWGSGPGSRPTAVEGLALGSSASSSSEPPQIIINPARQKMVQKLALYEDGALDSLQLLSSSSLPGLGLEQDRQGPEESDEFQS

R value (DMSO/fragment) [1]: 2.5
R value (DMSO/fragment) ([2]; 500 μM, invitro, ramos): 4.4
SMILES: COc1ccc2c(c1)CCCN2C(=O)CCl [compound 2]

R value (DMSO/fragment) [1]: 20.0
R value (DMSO/fragment) ([2]; 500 μM, invitro, ramos): 2.1
R value (DMSO/fragment) ([3]; 500 μM, in vitro, MDA-MB-231): 9.8
R value (DMSO/fragment) ([3]; 500 μM, invitro, ramos): 4.1
SMILES: O=C(CCl)Nc1cc(C(F)(F)F)cc(C(F)(F)F)c1 [compound 3]

R value (DMSO/fragment) ([2]; 250 μM, in vitro, Ramos): 1.4
SMILES: COc1ccc(C2CC(c3cccs3)=NN2C(=O)CCl)cc1 (centres unmarked) [compound 4]

isoTOP-ABPP ratio, P51617_C608 [1]: 10.1
isoTOP-ABPP ratio, P14598_C378 ([2]; 500 μM, invitro, ramos): 4.0
SMILES: C=CC(=O)N(c1ccccc1)c1ccc(Br)cc1 [compound 5]

isoTOP-ABPP ratio, P14598_C378 ([2]; 500 μM, invitro, ramos): 1.1
isoTOP-ABPP ratio, Q9C0C9_C375 ([3]; 500 μM, invitro, ramos): 0.8
SMILES: O=C(CCl)N1CCN(S(=O)(=O)c2ccccc2F)CC1 [compound 10]

isoTOP-ABPP ratio, P51617_C608 [1]: 1.3
SMILES: Cn1cc(S(=O)(=O)N2CCOCC2)cc1C(=O)NC(=O)CCl [compound 11]

isoTOP-ABPP ratio, P14598_C378 ([2]; 500 μM, invitro, ramos): 0.7
SMILES: O=C(CCl)NCCc1c[nH]c2ccccc12 [compound 13]

isoTOP-ABPP ratio (reactivity profile), Q9C0C9_C375 ([3]; 500 μm in-vitro ramos): 2.4
SMILES: O=C(CCl)NC12CC3CC(CC(C3)C1)C2 [compound 21]

isoTOP-ABPP ratio (reactivity profile), P51617_C608 [1]: 1.5
isoTOP-ABPP ratio (reactivity profile), Q9C0C9_C375 ([3]; 500 μm in-vitro ramos): 1.4
SMILES: N#C/C(=C\c1cc(C(F)(F)F)cc(C(F)(F)F)c1)C(N)=O [compound 23]

isoTOP-ABPP ratio (reactivity profile), P51617_C608 [1]: 1.3
SMILES: CC(Br)C(=O)Nc1cc(C(F)(F)F)cc(C(F)(F)F)c1 (centres unmarked) [compound 24]

isoTOP-ABPP ratio (reactivity profile), Q9C0C9_C375 ([3]; 500 μm in-vitro ramos_231): 0.7
SMILES: CC(C)CCOCCNC(=O)CCl [compound 27]

isoTOP-ABPP reactivity ratio, P51617_C608 ([1]; in-vitro_ramos): 2.9
isoTOP-ABPP reactivity ratio, P51617_C608 ([1]; in-vitro_ramos_231): 5.8
SMILES: CC(C)(C)c1cc(NC(=O)CCl)on1 [compound 32]

isoTOP-ABPP reactivity ratio, P51617_C608 ([1]; in-vitro_ramos): 2.4
SMILES: C=CC(=O)Nc1cc(F)c(N2CCN(C(=O)OC(C)(C)C)CC2)c(F)c1 [compound 38]

isoTOP-ABPP reactivity ratio, P51617_C608 ([1]; in-vitro_ramos_231): 1.1
SMILES: Cc1ccc(C=C(C#N)C(=O)NCCN2CCOCC2)cc1 [compound 41]

isoTOP-ABPP reactivity profile ratio, P14598_C378 ([2]; 500 μm, in-vitro_ramos): 1.2
SMILES: COc1cc(NC(=O)CCl)cc(OC)c1 [compound 43]

isoTOP-ABPP reactivity profile ratio, P51617_C608 ([1]; in-vitro_ramos): 1.1
isoTOP-ABPP reactivity profile ratio, Q9C0C9_C375 ([3]; 500 μm, in-vitro_ramos): 0.8
SMILES: O=C(CCl)Nc1cccc2ncccc12 [compound 51]

isoTOP-ABPP reactivity profile ratio, P51617_C608 ([1]; in-vitro_ramos): 17.6
SMILES: O=C(CCl)Nc1ccc(-c2ccccc2)cc1 [compound 52]
